Measured values taken from patent US5132309A, “2-oxo-3,8-diazaspiro(4,5)decane derivatives, pharmaceutical compositions containing them and process for preparing same” (Richter Gedeon Vegyeszeti Gyar RT, priority 1989, dated 1992).
Read-outs that look alike come from different tables or passages of the source.

Key:
[1] = test system: apomorphine-induced locomotor hyperactivity and stereotypy; test: Inhibition of the apomorphine-induced locomotor hyperactivity and stereotypy; assay type: in vivo, male Hannover-Wistar rats; details: rat, 2.5 mg/kg oral; for Inhibition of apomorphine-induced LMA as percentage of the control / Inhibition of apomorphine-induced stereotypy as percentage of the control: apomorphine hydrochloride 1 mg/kg s.c.; for Inhibition of apomorphine-induced LMA as percentage of the control: control LMA 100% (438.9 ± 54.7 sec); for Inhibition of apomorphine-induced stereotypy as percentage of the control: control stereotypy 100% (105.0 ± 13.7 sec)
Source text: Apomorphine induces a characteristic syndrome in rats and various animal species which manifests itself in the hyperactivity and stereotypic behavior of the animals [J. Pharm. Pharmacol. 19 627 (1957); J. Neurol. Transm. 40, 97 (1977); J. Psychiat. Res. 11, 1 (1974); J. Pharm. Pharmacol. 25, 1003 (1973); as well as Nature 263, 338 (1976)].
Male Hannover-Wistar rats weighing 160 to 180 g were used in these examinations. The test compounds were suspended in a 2% Tween 80 solution and diluted to the desired concentration by adding distilled water. The corresponding dose was administered to rats in a volume of 5 ml/kg. The control group was treated with the above solution containing no test substance.
One hour following the treatment with 2.5 mg/kg oral dose of the test compound, the rats were subcutaneously treated with 1 mg/kg of apomorphine hydrochloride.
At 15 minutes after administration of apomorphine, the animals were placed in a 5-channel behavior-observing device controlled by a microprocessor and the coordinated and stereotypic motion of the animals were measured for 15 minutes. Chlozapine (chemically 8-chloro-11-(4-methyl-1-piperazinyl)-5H-dibenzo[b,e][1,4]diazepine) was used in a dose of 2.5 mg/kg as reference drug. The results are given as percentages of the control for both motion types.

[2] = Cataleptogenic (catalepsy-inducing) effect; set-up: species or system male Wistar rats; details: in vivo; rat; oral; hourly for 6 hours
[3] = test system: hypoxic memory damage; test: Inhibition of the hypoxic damage of the memory (nootropic effect), conditioned avoidance in Shuttle-box; assay type: in vivo, male spontaneously (genetically) hypertensive rats; details: rat, hypoxia 6% oxygen
Source text: Male, spontaneously (genetically) hypertensive rats weighing 210 to 230 g were used in these examinations. The active avoiding behavior was developed in a 6-channel automated Shuttle-box by a training consisting of 30 cycles during 3 days. Within a single cycle an intermittent light stimulus of 1 Hz frequency for 15 seconds as conditioned stimulus and an electric stimulus of 0.8 mA for 10 seconds as unconditioned stimulus were used with an intersignal time of 15 seconds.
On the 4th day, one hour before the experiment the animals were treated with a 10 mg/kg oral dose of the test compounds. Two control groups were used in these examinations, one of which was treated with placebo whereas the other one was treated with placebo and exposed to hypoxia. Piracetam (chemically 2-oxo-1-pyrrolidineacetic acid amide) and dihydroergotoxine were used as reference drugs. The performance of the animals was examined under hypoxic conditions in such a way that the boxes were flown through at a rate of 200 ml/min/box with a gaseous mixture containing 6% by volume of oxygen and 94% by volume of nitrogen. The number of the conditioned avoidance responses (as abbreviated hereinafter: CAR) was counted. The protective effect of the compounds against the hypoxic memory damage was calculated by using the following formula: [formula] wherein
protective effect means the effect inhibiting the hypoxic memory damage expressed as percentage; and
CAR x means the average value of the number of conditioned responses in the animal group given.
The protective effect of the compounds against the hypoxic memory damage expressed as percentage of the control is shown in Table 2.

[4] = test system: hypobaric hypoxia; test: Inhibition of the hypobaric hypoxia (survival time); assay type: in vivo, male spontaneously hypertensive rats; details: for ED50: po, 1 h, read-out: Protection against hypobaric hypoxia, ED50
Protocol: Male, spontaneously hypertensive rats weighing 200 to 220 g were used in these investigations. Groups consisting of 3 animals each were placed into a desiccator of 6 liters by volume, the pressure was decreased to 170 Hgmm (22.66 kPa) within 20 seconds and continuously maintained at the same level. One hour before the examination, the animals were treated with various oral doses of the test compounds. The ED50 values (i.e. the doses prolonging the survival time of the test animals by 50% in comparison to that of the control group treated with placebo) were determined and summarized in Table 3.

[5] = test system: triethyl tin chloride-induced cerebral edema; test: Inhibition of the cerebral (brain) edema induced by triethyl tin chloride; assay type: in vivo, male Hannover-Wistar rats; details: rat, TET 2.5 mg/kg daily for 5 days
Protocol: The cerebral edema-inhibiting effect of the compounds was investigated by the following method [Ann. Pharm. Fr. 42, 431 (1984)].
A group consisting of 7 male Hannover-Wistar rats weighing 180 to 200 g were daily treated with 2.5 mg/kg of triethyl tin chloride (hereinafter TET) for 5 days to induce a cerebral edema. [TET (Merck-Schuchardt, Darmstadt, FRG) was dissolved in distilled water under stirring and the animals were orally treated with the stirred solution daily at 7 a.m.].
The reference and test compounds were homogenized in a 0.5% by weight carboxymethylcellulose solution by using an Ultra Turrax stirrer and the stirring was continued during the administration, too. These compounds were orally given first 1 hour, then 6 hours after the TET treatment in a volume of 0.5 ml/100 g of body-weight in both cases. The control group received the solvent of TET (i.e. distilled water) and the carrier of the compounds (i.e. 0.5% by weight carboxymethylcellulose solution) at the same intervals and volumes as given above.
On the 5th day of treatments, 2 hours following the last administration of the test compound, the animals were decapitated, the whole brain was rapidly taken out, washed with cold, 0.9% by weight sodium chloride solution and the moisture was removed by filter paper. The wet weights of the brains were weighed with an accuracy of one tenth mg and placed onto an aluminum foil previously weighed. Subsequently, the brains were dried at 90° C. for 92 hours, then the total (gross) weight (i.e. the dry brain weight together with the weight of the aluminum foil) was determined. The water content of the brain and the change thereof, respectively, were calculated from the difference of the wet and dry brain weight. The change was expressed as percentage of the protection as follows: [formula] wherein (TET-Ko) means the mean water content (%) of the brain of animals treated with TET and carrier;
(TET-V) means the mean water content (%) of the brain of animals treated with TET and test compound;
(Veh-Ko) means the mean water content (%) of the brain of animals treated with distilled water and carrier.
The deviations of changes in the water content and dry weight of the brain were compared by using Student's "t" trial. Also here, piracetam and dihydroergotoxine were used as reference drugs.

In the case of `CN1C(=O)OC2(CCN(CCC=C(c3ccc(F)cc3)c3ccc(F)cc3)CC2)C1(C)O.Cl` (stereo not drawn) [A, 8-[4,4-bis(4-fluorophenyl)-3-butenyl]-3,4-dimethyl-4-hydroxy-2-oxo-1-oxa-3,8-diazaspiro[4,5]decane hydrochloride], the “Inhibition of apomorphine-induced LMA as percentage of the control” value [1] is reported as -40 percentage of the control, the “Inhibition of apomorphine-induced stereotypy as percentage of the control” value [1] is reported as 0 percentage of the control and the ED50 at 6 h [2] is reported as > 300 mg/kg.
For `CC1(O)N(Cc2ccccc2)C(=O)OC12CCN(CCC=C(c1ccc(F)cc1)c1ccc(F)cc1)CC2.Cl` (stereo not drawn) [B, 3-benzyl-8-[4,4-bis(4-fluorophenyl)-3-butenyl]-4-hydroxy-4-methyl-2-oxo-1-oxa-3,8-diazaspiro[4,5]decane hydrochloride], the “Inhibition of apomorphine-induced LMA as percentage of the control” value [1] was -25 percentage of the control, the “Inhibition of apomorphine-induced stereotypy as percentage of the control” value [1] was “+15 percentage of the control” and the ED50 at 6 h [2] was > 300 mg/kg.
For `CC(C)(C)N1C(=O)OC2(CCN(CCC=C(c3ccc(F)cc3)c3ccc(F)cc3)CC2)C1(C)O.Cl` (stereo not drawn) [C, 3-tert-butyl-8-[4,4-bis(4-fluorophenyl)-3-butenyl]-4-hydroxy-4-methyl-2-oxo-1-oxa-3,8-diazaspiro[4,5]decane hydrochloride], the Protection against amnesia ([3]; 10 mg/kg p.o.) was 64%, the ED50 ([4]; rat, 170 Hgmm, dose prolonging survival time by 50% vs placebo control) was 23.7 mg/kg and the “Protection (brain water content, cerebral edema)” value ([5]; dose 25 umol/kg oral) was 97.9%. For the same compound, the “Protection (brain water content, cerebral edema)” value ([5]; dose 50 umol/kg oral) was 102.0% and the “Protection (brain water content, cerebral edema)” value ([5]; dose 100 umol/kg oral) was 88.1%.
In the case of `CN1CCN(C2=Nc3cc(Cl)ccc3Nc3ccccc32)CC1` [Clozapine, 8-chloro-11-(4-methyl-1-piperazinyl)-5H-dibenzo[b,e][1,4]diazepine, reference compound], the “inhibition of stereotypy (in words)” value [1] is reported as “did not inhibit the stereotypy”, the “Inhibition of apomorphine-induced LMA as percentage of the control” value [1] is reported as -25 percentage of the control and the “Inhibition of apomorphine-induced stereotypy as percentage of the control” value [1] is reported as “+11 percentage of the control”. For the same compound, the ED50 at 6 h [2] was 31.9 mg/kg.
With `COc1ccc(CCN2C(=O)OC3(CCN(CCC=C(c4ccc(F)cc4)c4ccc(F)cc4)CC3)C2(C)O)cc1OC.O=C(O)/C=C\C(=O)O` (stereo not drawn) [D, 8-[4,4-bis(4-fluorophenyl)-3-butenyl]-3-[2-(3,4-dimethoxyphenyl)ethyl]-4-hydroxy-4-methyl-2-oxo-1-oxa-3,8-diazaspiro[4,5]decane maleate] the “Protection (brain water content, cerebral edema)” value ([5]; dose 100 umol/kg oral) was 102.2%.
For `CC1(O)NC(=O)OC12CCN(CCC=C(c1ccc(F)cc1)c1ccc(F)cc1)CC2.Cl` (stereo not drawn) [E, 8-[4,4-bis(4-fluorophenyl)-3-butenyl]-4-hydroxy-4-methyl-2-oxo-1-oxa-3,8-diazaspiro[4,5]decane hydrochloride], the “Protection (brain water content, cerebral edema)” value ([5]; dose 100 umol/kg oral) was 114.3%.
In the case of `NC(=O)CN1CCCC1=O` [PIR, 2-oxo-1-pyrrolidineacetic acid amide], the Protection against amnesia ([3]; 500 mg/kg p.o.) is reported as 85%, the ED50 ([4]; Rattus norvegicus) is reported as 293 mg/kg and the “Protection (brain water content, cerebral edema)” value ([5]; dose 100 umol/kg oral) is reported as 16.7%.
In the case of dihydroergotoxine [DHE], the Protection against amnesia ([3]; 10 mg/kg p.o.) is reported as 63%, the “survival achieved at the high dose of DHE” value ([4]; rat, 50.0 mg/kg p.o., hypobaric hypoxia) is reported as 40% and the “Protection against hypobaric hypoxia, ED50” value ([4]; rat, 170 Hgmm, dose prolonging survival time by 50% vs placebo control, 60 min) is reported as 50.0 mg/kg p.o. The “Protection (brain water content, cerebral edema)” value ([5]; dose 30 mg/kg oral) was 25.6%.
